Measurements published in EPA's ToxRefDB 2.

Key:
mouse [1] = settings: Carcinogenicity, b6c3f1, Oral, Gavage/Intubation, dose end: 103 week, group: systemic
rat [2] = settings: Chronic toxicity, sprague dawley, Oral, Feed, dose end: 110 week
mouse [3] = settings: Subchronic oral toxicity in rodents, b6c3f1, Gavage/Intubation, dose end: 13 week, group: systemic
rat [4] = settings: Sub-acute repeat dose toxicity; fischer; Oral; Gavage/Intubation; dose end: 16 day; group: systemic; systemic / in life observation / clinical signs / altered breathing rate + systemic / in life observation / clinical signs / ataxia + …
mouse [5] = settings: Sub-acute repeat dose toxicity; b6c3f1; Oral; Gavage/Intubation; dose end: 16 day; group: systemic; systemic / in life observation / clinical signs / altered breathing rate + systemic / in life observation / clinical signs / ataxia + …
rat [6] = settings: Carcinogenicity; fischer; Oral; Gavage/Intubation; dose end: 103 week; group: systemic; systemic / pathology microscopic / kidney / nephropathy + systemic / pathology microscopic / liver / degeneration + systemic / pathology …
mouse [7] = settings: Chronic toxicity, cd1, Oral, Feed, dose end: 109 week, group: systemic
rat [8] = settings: Subchronic oral toxicity in rodents, fischer, Gavage/Intubation, dose end: 13 week, group: systemic
rat [9] = settings: Prenatal developmental toxicity study, sprague dawley, Oral, Gavage/Intubation, dose end: 15 GD
rat [10] = settings: Subchronic oral toxicity in rodents, fischer, Gavage/Intubation, dose end: 13 week, group: systemic; remark: listed apart in the source
rabbit = settings: Prenatal developmental toxicity study, new zealand white, Oral, Gavage/Intubation, dose end: 18 GD
mouse [11] = settings: Subchronic oral toxicity in rodents, b6c3f1, Gavage/Intubation, dose end: 13 week, group: systemic, systemic / in life observation / clinical signs / lethargy + systemic / organ weight / liver / absolute + systemic / organ weight / liver / …
mouse [12] = settings: Carcinogenicity, b6c3f1, Oral, Gavage/Intubation, dose end: 2 year, group: systemic
rat [13] = settings: Multigenerational reproductive toxicity study, sprague dawley, Oral, Gavage/Intubation, dose end: 2 generation, group: parental
rat [14] = settings: Carcinogenicity, fischer, Oral, Gavage/Intubation, dose end: 2 year, group: systemic
[15] = systemic / pathology microscopic / liver / eosinophilic focus + systemic / pathology microscopic / liver / syncytial alteration
[16] = systemic / pathology microscopic / liver / eosinophilic focus + systemic / pathology microscopic / liver / syncytial alteration + systemic…
[17] = group: cholinesterase, cholinesterase / cholinesterase / cholinesterase / plasma cholinesterase (che)
[18] = group: systemic, systemic / clinical chemistry / cholesterol / cholesterol
[19] = group: systemic, systemic / clinical chemistry / cholesterol / cholesterol + systemic / clinical chemistry / glucose / glucose + systemic / clinical …
[20] = systemic / organ weight / liver / absolute + systemic / organ weight / liver / relative to body weight + systemic / pathology microscopic / …
[21] = systemic / organ weight / liver / nos
[22] = group: developmental, systemic / in life observation / body weight / fetal weight
[23] = group: maternal, systemic / in life observation / clinical signs / urine, discoloration
[24] = group: maternal, systemic / in life observation / clinical signs / urine, discoloration + systemic / in life observation / body weight / body weight + …
[25] = systemic / organ weight / liver / absolute + systemic / organ weight / liver / relative to body weight
[26] = group: developmental, developmental / developmental malformation / bone / bent + developmental / developmental malformation / eye / microphthalmia
[27] = group: maternal, systemic / in life observation / body weight / body weight + systemic / in life observation / body weight / body weight gain + systemic / in…
[28] = systemic / in life observation / body weight / body weight + systemic / pathology microscopic / thyroid gland / hyperplasia + systemic / …
[29] = systemic / pathology microscopic / thyroid gland / hyperplasia + systemic / pathology microscopic / liver / cytomegaly + systemic / …
[30] = systemic / in life observation / clinical signs / tremors + systemic / in life observation / body weight / body weight gain
[31] = systemic / in life observation / body weight / body weight + systemic / organ weight / kidney / relative to body weight + systemic / …
[32] = systemic / in life observation / body weight / body weight + systemic / pathology microscopic / blood / leukemia mononuclear

## O=c1ccc2ccccc2o1 [Coumarin]
Mouse [1]; [15]
  LOAEL: 50 mg/kg/day
  NOAEL: < 50 mg/kg/day
Mouse [1]; [16]
  LEL: 50 mg/kg/day
  NEL: < 50 mg/kg/day
Rat [2]; [17]
  LEL: 16 mg/kg/day
  LOAEL: > 283 mg/kg/day
  NEL: < 16 mg/kg/day
  NOAEL: ≥ 283 mg/kg/day
Rat [2]; [18]
  LEL: 13 mg/kg/day
  NEL: < 13 mg/kg/day
Rat [2]; [19]
  LOAEL: > 234 mg/kg/day
  NOAEL: ≥ 234 mg/kg/day
Mouse [3]; systemic / hematology / mean corpuscular (cell) volume (mcv) / mean corpuscular (cell) volume (mcv) + systemic / hematology / mean …
  LEL: 38 mg/kg/day
Mouse [3]; systemic / in life observation / body weight / body weight + systemic / in life observation / body weight / body weight gain + systemic / …
  NEL: 19 mg/kg/day
Mouse [3]; [20]
  LOAEL: 300 mg/kg/day
  NOAEL: 150 mg/kg/day
Rat [4]
  LEL: 400 mg/kg/day
  LOAEL: > 400 mg/kg/day
  NEL: 200 mg/kg/day
  NOAEL: ≥ 400 mg/kg/day
Mouse [5]
  LEL: 300 mg/kg/day
  LOAEL: 300 mg/kg/day
  NEL: 150 mg/kg/day
  NOAEL: 150 mg/kg/day
Rat [6]
  LEL: 25 mg/kg/day
  LOAEL: 25 mg/kg/day
  NEL: < 25 mg/kg/day
  NOAEL: < 25 mg/kg/day
Mouse [7]; systemic / in life observation / body weight / body weight gain
  LEL: 85.8 mg/kg/day
Mouse [7]; systemic / in life observation / body weight / body weight gain + systemic / in life observation / food consumption / food efficiency
  NEL: 26.2 mg/kg/day
Mouse [7]; [21]
  LOAEL: > 271 mg/kg/day
  NOAEL: ≥ 271 mg/kg/day
Rat [8]; systemic / hematology / erythrocyte (rbc) count differential / erythrocyte (rbc) + systemic / hematology / mean corpuscular (cell) volume (…
  LEL: 75 mg/kg/day
Rat [8]; [20]
  LOAEL: 150 mg/kg/day
  NEL: 38 mg/kg/day
  NOAEL: 75 mg/kg/day

## Oc1ccc(O)cc1 [Hydroquinone]
Rat [9]; [22]
  LEL: 300 mg/kg/day
  LOAEL: > 300 mg/kg/day
  NEL: 100 mg/kg/day
  NOAEL: ≥ 300 mg/kg/day
Rat [9]; [23]
  LEL: 30 mg/kg/day
  NEL: < 30 mg/kg/day
Rat [9]; [24]
  LOAEL: > 300 mg/kg/day
  NOAEL: ≥ 300 mg/kg/day
Rat [10]; systemic / in life observation / clinical signs / lethargy + systemic / pathology microscopic / kidney / degeneration + systemic / pathology…
  LOAEL: 200 mg/kg/day
Rat [10]; [25]
  LEL: 25 mg/kg/day
  NEL: < 25 mg/kg/day
Rat [10]; systemic / organ weight / liver / absolute + systemic / organ weight / liver / relative to body weight + systemic / in life observation / …
  NOAEL: 100 mg/kg/day
rabbit; [26]
  LEL: 150 mg/kg/day
  LOAEL: > 150 mg/kg/day
  NEL: 75 mg/kg/day
  NOAEL: ≥ 150 mg/kg/day
rabbit; [27]
  LOAEL: > 150 mg/kg/day
  NEL: 25 mg/kg/day
  NOAEL: ≥ 150 mg/kg/day
rabbit; group: maternal, systemic / in life observation / food consumption / food consumption
  LEL: 75 mg/kg/day
Mouse [11]
  LEL: 25 mg/kg/day
  LOAEL: > 400 mg/kg/day
  NEL: < 25 mg/kg/day
  NOAEL: ≥ 400 mg/kg/day
Mouse [12]; [28]
  LOAEL: 100 mg/kg/day
  NOAEL: 50 mg/kg/day
Mouse [12]; [29]
  LEL: 50 mg/kg/day
  NEL: < 50 mg/kg/day
Rat [13]; systemic / in life observation / clinical signs / tremors
  NEL: 50 mg/kg/day
Rat [13]; [30]
  LEL: 150 mg/kg/day
  LOAEL: > 150 mg/kg/day
  NOAEL: ≥ 150 mg/kg/day
Rat [14]; [31]
  LOAEL: 50 mg/kg/day
  NOAEL: 25 mg/kg/day
Rat [14]; [32]
  LEL: 25 mg/kg/day
  NEL: < 25 mg/kg/day
